{"source": "patent US20200376291A1", "about": "“PHOTOBIOMODULATION THERAPY TO DELAY DYSTROPHY PROGRESSION” (Multi Radiance Medical, priority 2017, published 2020)", "format_in_all_cases": "in vivo", "key": {"[1]": {"tested_on": "dystrophin", "experiment": "Dystrophin in tibialis anterior muscle of mdx mice by immunohistochemistry", "settings": "treated for 14 weeks from 6 weeks of age, prednisone 1.5 mg/kg per day, ibuprofen 25 mg/kg per day, PBMT 3 times a week, FIG. 18", "description": "Mice were randomly divided into 7 different experimental groups: Wild Type (WT), Placebo-control (mdx mice), Prednisone (mdx mice), NSAID (mdx mice), […], and PBMT+NSAID (mdx mice). Prednisone (glucocorticoid) treatment was administered to animals daily with a dose of 1.5 mg/kg per day; NSAID treatment with ibuprofen was also administered to animals daily with a dose of 25 mg/kg per day. PBMT was performed employing a cluster probe (Multi Radiance Medical, Solon, Ohio) with 9 diodes (1 super-pulsed laser diode (905 nm), four LED diodes (875 nm), and 4 LED diodes (650 nm). PBMT was applied 3 times a week with direct contact to the animal's skin on hindlimb at a single point (tibialis anterior muscle—bilaterally). For combined treatments, each modality was applied as described previously. All treatments were performed during 14 weeks and started with animals at 6 weeks of age. The analysis consisted of muscle morphology, dystrophin through itntnunohistochetnistry and functional performance."}, "[2]": {"tested_on": "mdx mice", "experiment": "Skeletal muscle tissue morphology (histological sections, HE) in mdx mice", "settings": "treated for 14 weeks from 6 weeks of age, tibialis anterior muscle, FIGS. 13-17", "description": "The tibialis anterior muscles of the animal's hind paw were collected and stored in 10% buffered formalin for histological processing; then, hematoxylin and eosin staining was performed in a routine method. Slides were photographed, and the morphology of the skeletal striated muscle fibers was analyzed (Eclipse E-200; Nikon, Tokyo, Japan). Images of all groups were obtained using the 400x magnification. The images were presented with a similar photographic pattern.\n(§1) Mice were randomly divided into 7 different experimental groups: Wild Type (WT), Placebo-control (mdx mice), Prednisone (mdx mice), NSAID (mdx mice), […], and PBMT+NSAID (mdx mice). Prednisone (glucocorticoid) treatment was administered to animals daily with a dose of 1.5 mg/kg per day; NSAID treatment with ibuprofen was also administered to animals daily with a dose of 25 mg/kg per day. […]"}, "[3]": {"tested_on": "mdx mice", "experiment": "Functional performance assessment in mdx mice", "settings": "treated for 14 weeks from 6 weeks of age, FIG. 19", "description": "The PBMT was analyzed using a functional performance evaluation protocol. The functional performance evaluation protocol included the animal climbing stairs with the following dimensions (1×0.09 m, distance between the steps of 0.5 cm and)80° using the animal's body weight (the protocol began with the animal's familiarization, in two sessions with a 24-h interval between the sessions). The aim of the sessions was to teach the mouse to move up the steps and consisted of three repetitions to the top, with a 60 s interval to rest. If necessary, a clamp stimulus for the animal to start moving was applied. After this familiarization, the assessments were performed before the treatments begin and 24-h after the last treatment, in order to evaluate how many times each mouse was able to climb up the stairs until the animal came to fatigue. Fatigue was identified when the animal could no longer perform the activity.\nas §1"}}, "data": [{"smiles": "CC(C)Cc1ccc(C(C)C(=O)O)cc1", "note": "(stereo not shown) [NSAID, ibuprofen]", "values": [{"measurement": "dystrophin compared to the placebo-control group", "setting": "[1]", "result": "no significant increase in dystrophin"}]}, {"smiles": "C[C@]12C=CC(=O)C=C1CC[C@@H]1[C@@H]2C(=O)C[C@@]2(C)[C@H]1CC[C@]2(O)C(=O)CO", "note": "[Prednisone]", "values": [{"measurement": "morphological aspects of skeletal muscle", "setting": "[2]", "result": "improvement in the morphological aspects of skeletal muscle"}, {"measurement": "muscular function compared to the placebo-control group", "setting": "[3]", "result": "improved muscular function"}, {"measurement": "dystrophin compared to the placebo-control group", "setting": "[1]", "result": "increased dystrophin"}]}]}
